This assay addresses CDK7/CycH/MNAT1 (Homo sapiens (Human), UniProt P50613). In words: Biochemical Assay for CDK7 (TR-FRET kinase assay). The note with it: 60 min pre-incubation with kinase, 1 mM ATP; for inhibition at 10 µM / % inhibition @ 10 μM: 10 μM compound. An outline of the steps:
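TR-FRET with 5 nM CDK7/CycH/MNAT1, compound pre-incubated 60 min at room temperature, then 100 nM ULight-MBP and 1 mM ATP for 60 min; stopped with EDTA, Eu anti-phospho-MBP read at 665/615 nm. 1% DMSO; IC50 from sigmoidal fit. Time-dependence tested with 20, 60, 180 min pre-incubation.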

This note sets out measurements from US11174232B2, “Substituted heterocyclyl derivatives as CDK inhibitors” (Aurigene Discovery Technologies Limited, priority 2015, dated 2021).

Broadly, the inhibition is the drop in the measured response relative to a control, in per cent. A lower inhibition goes with a weak effect. As usually defined, the IC50 is the point on the concentration scale where inhibition reaches its midpoint. A high value points to lower potency.

Chain of CDK7/CycH/MNAT1 (P50613 whole entry): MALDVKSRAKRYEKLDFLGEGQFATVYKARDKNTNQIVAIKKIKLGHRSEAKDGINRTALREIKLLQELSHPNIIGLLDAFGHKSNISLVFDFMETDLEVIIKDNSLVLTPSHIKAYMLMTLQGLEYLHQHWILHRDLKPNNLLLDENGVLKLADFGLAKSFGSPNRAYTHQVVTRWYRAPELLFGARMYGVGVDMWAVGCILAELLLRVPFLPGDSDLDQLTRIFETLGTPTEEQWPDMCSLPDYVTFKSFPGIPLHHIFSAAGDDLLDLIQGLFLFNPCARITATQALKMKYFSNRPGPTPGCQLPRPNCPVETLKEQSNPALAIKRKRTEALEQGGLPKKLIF
Chain of CDK7/CycH/MNAT1 (P51946 whole entry partner): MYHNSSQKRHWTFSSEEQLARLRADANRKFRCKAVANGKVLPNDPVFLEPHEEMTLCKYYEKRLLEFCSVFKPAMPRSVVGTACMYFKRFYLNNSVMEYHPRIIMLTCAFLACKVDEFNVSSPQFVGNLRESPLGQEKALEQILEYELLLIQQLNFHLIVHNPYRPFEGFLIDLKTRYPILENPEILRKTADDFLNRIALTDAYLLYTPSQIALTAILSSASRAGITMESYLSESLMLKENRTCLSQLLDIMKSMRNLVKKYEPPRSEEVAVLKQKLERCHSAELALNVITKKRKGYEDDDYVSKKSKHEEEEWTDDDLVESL
Chain of CDK7/CycH/MNAT1 (P51948 whole entry partner): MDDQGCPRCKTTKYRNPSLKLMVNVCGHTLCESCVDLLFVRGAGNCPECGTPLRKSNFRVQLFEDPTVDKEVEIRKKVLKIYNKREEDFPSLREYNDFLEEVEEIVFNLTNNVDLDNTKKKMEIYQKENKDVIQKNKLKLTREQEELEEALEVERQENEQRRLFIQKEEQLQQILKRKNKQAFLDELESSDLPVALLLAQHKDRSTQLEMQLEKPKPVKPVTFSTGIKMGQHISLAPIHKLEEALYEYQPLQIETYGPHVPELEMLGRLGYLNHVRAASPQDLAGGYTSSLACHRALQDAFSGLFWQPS

For the compound `COCCN(C)C/C=C/C(=O)Nc1ccc(-c2cccc(C(C)C(=O)Nc3cc(C4CC4)[nH]n3)c2)cn1` (centres unmarked) [Compound 68, (E)-N-(5-(3-(1-((5-cyclopropyl-1H-pyrazol-3-yl)amino)-1-oxopropan-2-yl)phenyl)pyridin-2-yl)-4-((2-methoxyethyl)(methyl)amino)but-2-enamide], at 10 µM the inhibition was 95% and the IC50 is below 25 nM.

With `CC(C(=O)Nc1cc(C2CC2)[nH]n1)c1cccc(-c2ccc(NC(=O)/C=C/CN3CC[C@H](F)C3)nc2)c1` (stereo partly drawn) [Compound 46, (E)-N-(5-(3-(1-((5-cyclopropyl-1H-pyrazol-3-yl)amino)-1-oxopropan-2-yl)phenyl)pyridin-2-yl)-4-((S)-3-fluoropyrrolidin-1-yl)but-2-enamide], the inhibition at 10 µM was determined as 95% and the IC50 is below 25 nM.

In the case of `CCN(CC)C/C=C/C(=O)Nc1ccc(-c2cccc(C(C)C(=O)Nc3cc(C4CC4)[nH]n3)c2)cn1` (centres unmarked) [Compound 55, (E)-N-(5-(3-(1-((5-cyclopropyl-1H-pyrazol-3-yl)amino)-1-oxopropan-2-yl)phenyl)pyridin-2-yl)-4-(diethylamino)but-2-enamide], the inhibition at 10 µM was 95% and the IC50 is below 25 nM.

Consider `CC(C(=O)Nc1cc(C2CC2)[nH]n1)c1cccc(C2=CCN(C(=O)/C=C/CN(C)C)CC2)c1` (centres unmarked) [Compound 84, (E)-N-(5-cyclopropyl-1H-pyrazol-3-yl)-2-(3-(1-(4-(dimethylamino)but-2-enoyl)-1,2,3,6-tetrahydropyridin-4-yl)phenyl)propanamide], for which the inhibition at 10 µM was 88% and the IC50 is above 100 nM.

As to `CC(C(=O)Nc1cc(C2CC2)[nH]n1)c1cccc(-c2cncc(NC(=O)/C=C/CN3CCCC3)n2)c1` (centres unmarked) [Compound 92, (E)-N-(6-(3-(1-((5-cyclopropyl-1H-pyrazol-3-yl)amino)-1-oxopropan-2-yl)phenyl)pyrazin-2-yl)-4-(pyrrolidin-1-yl)but-2-enamide], the inhibition at 10 µM worked out at 86% and the IC50 lay within 25 to 100 nM.

With `CC(C(=O)Nc1cc(C2CC2)[nH]n1)c1cccc(-c2ccc(NC(=O)/C=C/CN(C)C)cc2F)c1` (centres unmarked) [Compound 17, (E)-N-(3′-(1-((5-cyclopropyl-1H-pyrazol-3-yl)amino)-1-oxopropan-2-yl)-2-fluoro-[1,1′-biphenyl]-4-yl)-4-(dimethylamino)but-2-enamide], the inhibition at 10 µM was found to be 80% and the IC50 is above 100 nM.

The compound `CC(C)C(C(=O)Nc1cc(C2CC2)[nH]n1)c1cccc(-c2ccc(NC(=O)/C=C/CN(C)C)cn2)c1` (centres unmarked) [Compound 36, (E)-N-(6-(3-(1-((5-cyclopropyl-1H-pyrazol-3-yl)amino)-3-methyl-1-oxobutan-2-yl)phenyl)pyridin-3-yl)-4-(dimethylamino)but-2-enamide] returned an inhibition at 10 µM of 98% and an IC50 below 25 nM.

Compound `O=C(/C=C/CN1CCCC1)Nc1ccc(-c2cccc(C3(C(=O)Nc4cc(C5CC5)[nH]n4)CC3)c2)cn1` [Compound 94, (E)-N-(5-cyclopropyl-1H-pyrazol-3-yl)-1-(3-(6-(4-(pyrrolidin-1-yl)but-2-enamido)pyridin-3-yl)phenyl)cyclopropane-1-carboxamide] registered an inhibition at 10 µM of 85% and an IC50 above 100 nM.

For `CC(C(=O)Nc1cc(C2CC2)[nH]n1)c1cccc(-c2ccc(NC(=O)/C=C/CN3CCCC3)nc2)c1` (single isomer, unassigned) [Compound 53, (E)-N-(5-(3-(1-((5-cyclopropyl-1H-pyrazol-3-yl)amino)-1-oxopropan-2-yl)-phenyl)pyridin-2-yl)-4-(pyrrolidin-1-yl)but-2-enamide], the “% inhibition @ 10 μM” value is reported as 100% and the IC50 was below 25 nM.

For the compound `CC(C(=O)Nc1cc(C2CC2)[nH]n1)c1cccc(-c2ccc(NC(=O)/C=C/CN3CC[C@@H](F)C3)nc2)c1` (single isomer, unassigned) [Compound 51], the “% inhibition @ 10 μM” value turned out to be 90% and the concentration for half-maximal inhibition (IC50) is above 100 nM.

For `CN(C)C/C=C/C(=O)Nc1ccc(-c2cccc(CC(=O)Nc3cc(C4CC4)[nH]n3)c2)cc1` [Compound 7, (E)-N-(3′-(2-((5-cyclopropyl-1H-pyrazol-3-yl)amino)-2-oxoethyl)-[1,1′-biphenyl]-4-yl)-4-(dimethylamino)but-2-enamide], the inhibition at 10 µM came to 84% and the IC50 was above 100 nM.

`C=CC(=O)Nc1ccc(-c2cccc(C(C)C(=O)Nc3cc(C4CC4)[nH]n3)c2)c(C)c1` (centres unmarked) [Compound 75, N-(3′-(1-((5-cyclopropyl-1H-pyrazol-3-yl)amino)-1-oxopropan-2-yl)-2-methyl-[1,1′-biphenyl]-4-yl)acrylamide] came in with an inhibition at 10 µM of 78% and an IC50 above 100 nM.

As for `CCN(CC)C/C=C/C(=O)Nc1ccc(-c2cccc(C(C)C(=O)Nc3cc(C4CC4)[nH]n3)c2)cc1F` (centres unmarked) [Compound 32, (E)-N-(3′-(1-((5-cyclopropyl-1H-pyrazol-3-yl)amino)-1-oxopropan-2-yl)-3-fluoro-[1,1′-biphenyl]-4-yl)-4-(diethylamino)but-2-enamide], at 10 µM the inhibition was 100% and the 50% inhibitory concentration (IC50) is below 25 nM.

In turn, `CC(C(=O)Nc1cc(C2CC2)[nH]n1)c1cccc(-c2ccc(NC(=O)/C=C/CN(C)C)c(F)c2)c1` (centres unmarked) [Compound 14, (E)-N-(3′-(1-((5-cyclopropyl-1H-pyrazol-3-yl)amino)-1-oxopropan-2-yl)-3-fluoro-[1,1′-biphenyl]-4-yl)-4-(dimethylamino)but-2-enamide] displayed an inhibition at 10 µM of 95% and a 50% inhibitory concentration (IC50) above 100 nM.

For the compound `C=CC(=O)Nc1ccc(-c2cccc(C(C)C(=O)Nc3cc(CC)[nH]n3)c2)cc1` (centres unmarked) [Compound 87, N-(3′-(1-((5-ethyl-1H-pyrazol-3-yl)amino)-1-oxopropan-2-yl)-[1,1′-biphenyl]-4-yl)acrylamide], the inhibition at 10 µM is 89% and the IC50 is above 100 nM.

Take `CC(C(=O)Nc1cc(C2CC2)[nH]n1)c1ccc(F)c(-c2ccc(NC(=O)/C=C/CN(C)C)cc2)c1` (centres unmarked) [Compound 4, (E)-N-(5′-(1-((5-cyclopropyl-1H-pyrazol-3-yl)amino)-1-oxopropan-2-yl)-2′-fluoro-[1,1′-biphenyl]-4-yl)-4-(dimethylamino)but-2-enamide]: the inhibition at 10 µM turned out to be 95% and the IC50 was above 100 nM.

`CC(C(=O)Nc1cc(C2CC2)[nH]n1)c1cccc(-c2ccc3c(c2)CCN3C(=O)/C=C/CN(C)C)c1` (centres unmarked) [Compound 29, (E)-N-(5-cyclopropyl-1H-pyrazol-3-yl)-2-(3-(1-(4-(dimethylamino)but-2-enoyl)indolin-5-yl)phenyl)propanamide] displayed an inhibition at 10 µM of 97% and an IC50 below 25 nM.

Take `CC(C(=O)Nc1cc(C2CC2)[nH]n1)c1cccc(-c2ccc(NC(=O)/C=C/CN(C)C)cc2)c1` (single isomer, unassigned) [Compound 2, (E)-N-(3′-(1-((5-cyclopropyl-1H-pyrazol-3-yl)amino)-1-oxopropan-2-yl)-[1,1′-biphenyl]-4-yl)-4-(dimethylamino)but-2-enamide]: the “% inhibition @ 10 μM” value is 69% and the IC50 was above 100 nM.

`C=CC(=O)Nc1ccc(-c2cccc(C(C)C(=O)Nc3cc(C4CC4)[nH]n3)c2)cc1C` (centres unmarked) [Compound 66, N-(3′-(1-((5-cyclopropyl-1H-pyrazol-3-yl)amino)-1-oxopropan-2-yl)-3-methyl-[1,1′-biphenyl]-4-yl)acrylamide] came in with an inhibition at 10 µM of 88% and an IC50 above 100 nM.

As for `CC(C(=O)Nc1cc(C2CC2)[nH]n1)c1cccc(-c2ccc(NC(=O)/C=C/CN3CCOCC3)nc2F)c1` (centres unmarked) [Compound 59, (E)-N-(5-(3-(1-((5-cyclopropyl-1H-pyrazol-3-yl)amino)-1-oxopropan-2-yl)phenyl)-6-fluoropyridin-2-yl)-4-morpholinobut-2-enamide], testing at 10 µM gave an inhibition of 99% and the IC50 is 25 to 100 nM.

With `CC(C(=O)Nc1cc(C2CC2)[nH]n1)c1cccc(-c2ccc(NC(=O)/C=C/CN(C)C)cc2)c1` (single isomer, unassigned) [Compound 3, (E)-N-(3′-(1-((5-cyclopropyl-1H-pyrazol-3-yl)amino)-1-oxopropan-2-yl)-[1,1′-biphenyl]-4-yl)-4-(dimethylamino)but-2-enamide], the “% inhibition @ 10 μM” value was 99% and the IC50 was in the range of 25 to 100 nM.

Regarding `CC(C(=O)Nc1cc(C2CC2)[nH]n1)c1cccc(-c2ccc(NC(=O)/C=C/CN3CC[C@@H](F)C3)nc2)c1` (stereo partly drawn) [Compound 49, (E)-N-(5-(3-(1-((5-cyclopropyl-1H-pyrazol-3-yl)amino)-1-oxopropan-2-yl)phenyl)pyridin-2-yl)-4-((R)-3-fluoropyrrolidin-1-yl)but-2-enamide], the inhibition at 10 µM stood at 89% and the IC50 is below 25 nM.

`CC(C(=O)Nc1cc(C2CC2)[nH]n1)c1cccc(-c2ccc(NC(=O)/C=C/CN3CC[C@H](F)C3)c(F)c2)c1` (stereo partly drawn) [Compound 80, (E)-N-(3′-(1-((5-cyclopropyl-1H-pyrazol-3-yl)amino)-1-oxopropan-2-yl)-3-fluoro-[1,1′-biphenyl]-4-yl)-4-((S)-3-fluoropyrrolidin-1-yl)but-2-enamide] yielded an inhibition at 10 µM of 95% and an IC50 of 25 to 100 nM.

`CC(C(=O)Nc1cc(C2CC2)[nH]n1)c1cc(-c2ccc(NC(=O)/C=C/CN(C)C)cc2)ccc1F` (centres unmarked) [Compound 5, (E)-N-(3′-(1-((5-cyclopropyl-1H-pyrazol-3-yl)amino)-1-oxopropan-2-yl)-4′-fluoro-[1,1′-biphenyl]-4-yl)-4-(dimethylamino)but-2-enamide] displayed an inhibition at 10 µM of 80% and a concentration for half-maximal inhibition (IC50) above 100 nM.

As for `CC(C)C(C(=O)Nc1cc(C2CC2)[nH]n1)c1cccc(-c2ccc(NC(=O)/C=C/CN3CCOCC3)nc2)c1` (centres unmarked) [Compound 44, (E)-N-(5-(3-(1-((5-cyclopropyl-1H-pyrazol-3-yl)amino)-3-methyl-1-oxobutan-2-yl)phenyl)pyridin-2-yl)-4-morpholinobut-2-enamide], the inhibition at 10 µM is 99% and the IC50 was below 25 nM.
